Experimental data as given in patent US20240270786A1, “STEROID COMPOUNDS” (Epirium Bio Inc., priority 2022, published 2024).

Experiments:
[1] = Pharmacokinetics: quantitative determination of compounds in mice brains; format: in vivo, C57BL/6 Mice; conditions: C57BL/6, mouse, brain, 10 mg/kg PO single dose, vehicle 10% NMP
Method: (§1) C57BL/6 Mice, Age 7-9 weeks, body weight range 20-25 g were used. The mice were fasted overnight. Mice were dosed once a day for a single day at 10 mg/kg, 10 mg/kg. 6 time-points were used for whole blood. 10% NMP was used as a vehicle. 9 animals were used per treatment, with three groups of three animals each. Group 1 had time points at 15 and 60 minutes, Group 2 had time points at 30 and 120 minutes, and Group 3 had time points at 90 and 240 minutes. An Oral (PO) route was used. Plasma and brain samples were collected (brain sample collected at terminal time point). Plasma was collected through the centrifugation of whole blood at 10,000 rpm for 10 minutes at 4° C. Samples were stored at −80° C. until processing.
(§2) 1.00 mg/mL in 100% MeOH PP vials (prepared at RT yellow light) at 2-8° C. were used as stock solution. 12.22-50000 ng/mL using 80% MeOH PP vials (prepared at RT yellow light) at 2-8° C. were used as working solution. 0.48-2000 ng/mL (prepared at RT yellow light) was used for the curve range. For Compounds 26, 40, and 50, 1.00 mg/mL of Compound 53 in 100% methanol Ria vials (Prepared at RT yellow light) was used as IS stock solution, and 80 ng/mL of Compound 53 in 80% methanol (Prepared at RT yellow light) was used as IS working solution. For Compound 36, 1.00 mg/mL of Compound 47 in 100% methanol Ria vials (Prepared at RT yellow light) was used as IS stock solution, and 80 ng/mL of Compound 47 in 80% methanol (Prepared at RT yellow light) was used as IS working solution. A linear, 1/×2 fit type was used. The injection volume was 10 μL for Compounds 26 and 36, and 5 μL for Compounds 40 and 50. Mobile Phase A was 0.1% Formic Acid in water at room temperature. Mobile Phase B was 100% methanol at room temperature. R0 wash solution was 80% methanol at room temperature. R3 wash solution was IPA/MeOH/ACN/water (1:1:1:1) at room temperature. The column was Agilent Eclipse 50*2.1 mm 1.8 μm and the instrument was Shimadzu LC-40 UPLC and AB Sciez 6500+ with LCMS002.
100 mg of brain tissue were weighed, 400 μL of Ice cold PBS was added, and samples were homogenated using polytron homogenizer. Before starting the experiment the blade was cleaned with NS, Methanol, Methanol: Water (50:50) followed by NS. Using a pipette with Methanol-rinsed pipette tips, homogenate 50 μL of each sample (calibration curve sample, QC samples and blank matrix) was aliquoted to labeled 1.5 ml Ependorfs. Using a pipette, 5.0 μL of IS of conc. 80 ng (Cocktail IS) was aliquoted to each standards and samples except Blank. All tubes were mixed on a multi-tube vortex for approximately 30 seconds. 1 ml of tert-butyl methyl ether (TBME) was added. All tubes were mixed on a multi-tube vortex for approximately 5 minutes then centrifuged for 10 min at 5,000 rpm, 4° C. The sample was kept in methanol containing dry ice for few seconds to freeze the Aqueous layer (flash freeze method). The upper organic layer was poured from the frozen tubes into the labeled 12×75-mm rial vials and evaporated to dryness under nitrogen using Liquid Evaporator (30° C., ˜15 psi, ˜10 mins). 200 μl of reconstitution solution (0.1% Formic Acid: MeOH (20:80 v/v) were added into each tube. The samples were vortexed for 30 seconds then transferred to amber glass injection vials for injection.
At the terminal time points, animals were euthanized after blood sample collection. Their skulls were opened and whole brains were separated and collected in previously labeled tubes. The tubes were then immediately transferred into liquid nitrogen container for snap freezing. Later the samples were stored at −80° C.

[2] = Pharmacokinetics: quantitative determination of compounds in mice plasma; format: in vivo, C57BL/6 Mice; conditions: 10 mg/kg PO single dose, vehicle 10% NMP; for AUC(0-inf) / AUC(0-t) / Cmax / Tmax: C57BL/6, mouse
Method: as §1
as §2, with “0.98-4000” for “0.48-2000”
Using a pipette, 25 μL of each sample were aliquoted (calibration curve sample, QC samples and blank matrix) to labeled 1.5 ml eppendorf. Using a pipette, 5.0 μL of IS of conc. 80 ng (Cocktail IS) was aliquoted to each standards and samples except Blank. All tubes were mixed on a multi-tube vortex for approximately 30 seconds. 50 μL of 10 mM Sodium bi-carbonate were added. 1 ml of tert-butyl methyl ether (TBME) was added. All tubes were mixed on a multi-tube vortex for approximately 5 minutes then centrifuged for 10 min at 5,000 rpm for Compounds 26 and 36 and at 10,000 rpm for Compounds 40 and 50, 4° C. The sample was kept in methanol containing dry ice for few seconds to freeze the Aqueous layer (flash freeze method). The upper organic layer was poured from the frozen tubes into the labeled 12×75-mm rial vials and evaporated to dryness under nitrogen using Liquid Evaporator (30° C., ˜15 psi, ˜10 mins). 200 μl of reconstitution solution (0.1% Formic Acid: MeOH (20:80 v/v) were added into each tube. Samples were Vortexed for 30 seconds then transferred to amber glass injection vials for injection.
After test item administration, blood samples were collected from individual animals in previously labeled Heparinised blood collection tubes. Blood samples were collected from retro orbital plexus. The time points for collection of blood samples from all the animals are; 0.25, 0.5, 1, 2 and 4 hr. The collected samples were subjected to centrifugation @ 10,000 rpm for 10 minutes at 40° C. for separation of plasma. Thereafter, plasma samples were collected in previously labeled plasma tubes. These were stored at −80° C. until analysis.

AUC(0-t) [1]	Cmax [1]	Tmax [1]	T½ [2]	AUC(0-inf) [2]	AUC(0-t) [2]	Cmax [2]	Tmax [2]	SMILES
487 ng·h/mL	433 ng/mL	1 h	1.03 h	993 ng·h/mL	930 ng·h/mL	2130 ng/mL	0.25 h	CN1C(=O)CC[C@@]2(C)C1=CCC1C2[C@@H](O)C[C@@]2(C)C1CC[C@@H]2NC(=O)C1CC1 (stereo partly drawn) [Compound 26, N-((4aR,5S,6aS,7S)-5-hydroxy-1,4a,6a-trimethyl-2-oxo-2,3,4,4a,4b,5,6,6a,7,8,9,9a,9b,10-tetradecahydro-1H-indeno[5,4-f]quinolin-7-yl)cyclopropanecarboxamide]
1640 ng·h/mL	1160 ng/mL	1 h	1.11 h	1640 ng·h/mL	1500 ng·h/mL	1960 ng/mL	0.25 h	CC(C)CCNC(=O)C1CCC2C3CC=C4N(C)C(=O)CC[C@]4(C)C3[C@@H](O)C[C@]12C (stereo partly drawn) [Compound 36, (4aR,5S,6aS)-5-hydroxy-N-isopentyl-1,4a,6a-trimethyl-2-oxo-2,3,4,4a,4b,5,6,6a,7,8,9,9a,9b,10-tetradecahydro-1H-indeno[5,4-f]quinoline-7-carboxamide]
2500 ng·h/mL	1680 ng/mL	1 h	0.933 h	2430 ng·h/mL	2300 ng·h/mL	2200 ng/mL	0.25 h	CNC(=O)[C@H]1CCC2C3CC=C4N(C)C(=O)CC[C@]4(C)C3[C@@H](O)C[C@@]21C (stereo partly drawn) [Compound 40, (4aR,5S,6aS)-5-hydroxy-N,1,4a,6a-tetramethyl-2-oxo-2,3,4,4a,4b,5,6,6a,7,8,9,9a,9b,10-tetradecahydro-1H-indeno[5,4-f] quinoline-7-carboxamide]
